# In PubChem BioAssay AID254 (DTP/NCI, 2004):
# Values joined by “and” are separate entries in the source; they are usually repeats but may differ in a detail not shown here. Identical values can stand only once. Toxic doses and inconclusive results are not listed.
# Tested on: L1210 leukemia iv in BDF1 mice, survival T/C
# Test: NCI In Vivo Anticancer Drug Screen. Data for tumor model L1210 Leukemia (intravenous) in B6D2F1 (BDF1) mice
# Settings: endpoint: mean survival time, higher = longer survival
# Experimental: The antitumor activity of compounds was measured in mice bearing transplantable tumors. Survival or tumor size were measured and the results are expressed as the measurement made in the treated group (T) divided by the measurement made in the vehicle treated control group (C). The tumor model used in this assay is L1210 Leukemia (intravenous) in B6D2F1 (BDF1) mice
structure (smiles),measurement,setting,value
CC1CCC(NC(=O)N(CCCl)N=O)CC1 (configuration not stated),T/C,"dose: 5.0 mg/kg/injection, schedule: Q04DX004 (ip), vehicle: other",124 % of control
same,T/C,"dose: 5.4 mg/kg/injection, schedule: Q01DX001 (oral), vehicle: other",122 % of control
same,T/C,"dose: 8.6 mg/kg/injection, schedule: Q04DX004 (ip), vehicle: saline with Tween-80",187 % of control
same,T/C,"dose: 10.0 mg/kg/injection, schedule: Q04DX004 (ip), vehicle: other",182 % of control
same,T/C,"dose: 10.7 mg/kg/injection, schedule: Q01DX001 (ip), vehicle: saline with Tween-80",152 % of control and 163 % of control
same,T/C,"dose: 12.0 mg/kg/injection, schedule: Q01DX001 (ip), vehicle: other",165 % of control
same,T/C,"dose: 12.0 mg/kg/injection, schedule: Q01DX001 (oral), vehicle: other",164 % of control and 187 % of control
same,T/C,"dose: 13.0 mg/kg/injection, schedule: Q04DX004 (ip), vehicle: saline with Tween-80",849 % of control and 850 % of control
same,T/C,"dose: 15.0 mg/kg/injection, schedule: Q01DX001 (ip), vehicle: other",352 % of control and 185 % of control and 332 % of control
same,T/C,"dose: 15.0 mg/kg/injection, schedule: Q04DX004 (ip), vehicle: other",734 % of control
same,T/C,"dose: 16.0 mg/kg/injection, schedule: Q01DX001 (ip), vehicle: other",102 % of control
same,T/C,"dose: 16.0 mg/kg/injection, schedule: Q01DX001 (ip), vehicle: saline with Tween-80",189 % of control and 248 % of control
same,T/C,"dose: 20.0 mg/kg/injection, schedule: Q01DX001 (ip), vehicle: other",532 % of control and 303 % of control and 326 % of control
same,T/C,"dose: 20.0 mg/kg/injection, schedule: Q04DX004 (ip), vehicle: other",463 % of control
same,T/C,"dose: 20.0 mg/kg/injection, schedule: Q04DX004 (ip), vehicle: saline with Tween-80",983 % of control
same,T/C,"dose: 24.0 mg/kg/injection, schedule: Q01DX001 (ip), vehicle: other",153 % of control
same,T/C,"dose: 24.0 mg/kg/injection, schedule: Q01DX001 (ip), vehicle: saline with Tween-80",347 % of control and 453 % of control
same,T/C,"dose: 27.0 mg/kg/injection, schedule: Q01DX001 (oral), vehicle: other",590 % of control and 633 % of control and 818 % of control
same,T/C,"dose: 30.0 mg/kg/injection, schedule: Q01DX001 (ip), vehicle: other",683 % of control
same,T/C,"dose: 30.0 mg/kg/injection, schedule: Q04DX004 (ip), vehicle: other",819 % of control
same,T/C,"dose: 35.0 mg/kg/injection, schedule: Q01DX001 (ip), vehicle: other",761 % of control
same,T/C,"dose: 36.0 mg/kg/injection, schedule: Q01DX001 (ip), vehicle: other",153 % of control
same,T/C,"dose: 36.0 mg/kg/injection, schedule: Q01DX001 (ip), vehicle: saline with Tween-80",612 % of control
same,T/C,"dose: 36.0 mg/kg/injection, schedule: Q01DX001 (oral), vehicle: other",751 % of control and 753 % of control and 868 % of control
same,T/C,"dose: 40.0 mg/kg/injection, schedule: Q01DX001 (oral), vehicle: other",633 % of control and 786 % of control and 818 % of control
same,T/C,"dose: 45.0 mg/kg/injection, schedule: Q01DX001 (oral), vehicle: other",574 % of control and 600 % of control
same,T/C,"dose: 50.0 mg/kg/injection, schedule: Q01DX001 (ip), vehicle: other",542 % of control and 661 % of control
same,T/C,"dose: 54.0 mg/kg/injection, schedule: Q01DX001 (ip), vehicle: other",202 % of control
same,T/C,"dose: 54.0 mg/kg/injection, schedule: Q01DX001 (ip), vehicle: saline with Tween-80",683 % of control and 875 % of control
same,T/C,"dose: 54.0 mg/kg/injection, schedule: Q01DX001 (oral), vehicle: other",810 % of control and 983 % of control and 179 % of control
same,T/C,"dose: 55.0 mg/kg/injection, schedule: Q01DX001 (ip), vehicle: other",500 % of control and 295 % of control
same,T/C,"dose: 60.0 mg/kg/injection, schedule: Q01DX001 (ip), vehicle: saline with Tween-80",557 % of control
same,T/C,"dose: 60.0 mg/kg/injection, schedule: Q01DX001 (oral), vehicle: other",408 % of control and 434 % of control and 185 % of control
same,T/C,"dose: 70.0 mg/kg/injection, schedule: Q01DX001 (ip), vehicle: other",433 % of control and 226 % of control
same,T/C,"dose: 71.0 mg/kg/injection, schedule: Q01DX001 (ip), vehicle: saline with Tween-80",156 % of control and 167 % of control
same,T/C,"dose: 80.0 mg/kg/injection, schedule: Q01DX001 (ip), vehicle: other",580 % of control and 171 % of control
same,T/C,"dose: 81.0 mg/kg/injection, schedule: Q01DX001 (ip), vehicle: other",378 % of control [middle of 4 runs]
same,T/C,"dose: 81.0 mg/kg/injection, schedule: Q01DX001 (ip), vehicle: saline with Tween-80",520 % of control and 719 % of control
same,T/C,"dose: 90.0 mg/kg/injection, schedule: Q01DX001 (ip), vehicle: other",511 % of control
same,T/C,"dose: 90.0 mg/kg/injection, schedule: Q01DX001 (oral), vehicle: other",372 % of control and 320 % of control
same,T/C,"dose: 91.0 mg/kg/injection, schedule: Q01DX001 (oral), vehicle: other",336 % of control and 513 % of control and 303 % of control
same,T/C,"dose: 100.0 mg/kg/injection, schedule: Q01DX001 (ip), vehicle: other",350 % of control
same,T/C,"dose: 107.0 mg/kg/injection, schedule: Q01DX001 (ip), vehicle: saline with Tween-80",201 % of control and 229 % of control
same,T/C,"dose: 110.0 mg/kg/injection, schedule: Q01DX001 (ip), vehicle: other",188 % of control
same,T/C,"dose: 120.0 mg/kg/injection, schedule: Q01DX001 (ip), vehicle: other",245 % of control
same,T/C,"dose: 160.0 mg/kg/injection, schedule: Q01DX001 (ip), vehicle: saline with Tween-80",392 % of control and 248 % of control
same,T/C,"dose: 240.0 mg/kg/injection, schedule: Q01DX001 (ip), vehicle: saline with Tween-80",556 % of control
same,T/C,"dose: 360.0 mg/kg/injection, schedule: Q01DX001 (ip), vehicle: saline with Tween-80",194 % of control and 263 % of control
same,T/C,"dose: 540.0 mg/kg/injection, schedule: Q01DX001 (ip), vehicle: saline with Tween-80",173 % of control
O=NN(CCCl)C(=O)NC1CCCCC1,T/C,"dose: 5.1 mg/kg/injection, schedule: Q01DX001 (ip), vehicle: carboxymethylcellulose (CMC)",102 % of control
same,T/C,"dose: 10.0 mg/kg/injection, schedule: Q04DX004 (ip), vehicle: carboxymethylcellulose (CMC)",124 % of control
same,T/C,"dose: 15.0 mg/kg/injection, schedule: Q01DX001 (ip), vehicle: Klucel (hydroxypropylcellulose) (HPC)",170 % of control
same,T/C,"dose: 16.0 mg/kg/injection, schedule: Q04DX004 (ip), vehicle: carboxymethylcellulose (CMC)",160 % of control
same,T/C,"dose: 16.6 mg/kg/injection, schedule: Q01DX001 (ip), vehicle: carboxymethylcellulose (CMC)",163 % of control and 174 % of control
same,T/C,"dose: 17.0 mg/kg/injection, schedule: Q01DX001 (ip), vehicle: carboxymethylcellulose (CMC)",176 % of control
same,T/C,"dose: 18.0 mg/kg/injection, schedule: Q01DX001 (ip), vehicle: Klucel (hydroxypropylcellulose) (HPC)",177 % of control
same,T/C,"dose: 21.0 mg/kg/injection, schedule: Q01DX001 (ip), vehicle: carboxymethylcellulose (CMC)",218 % of control and 241 % of control
same,T/C,"dose: 22.0 mg/kg/injection, schedule: Q01DX001 (ip), vehicle: Klucel (hydroxypropylcellulose) (HPC)",227 % of control
same,T/C,"dose: 22.0 mg/kg/injection, schedule: Q01DX001 (ip), vehicle: carboxymethylcellulose (CMC)",192 % of control and 225 % of control
same,T/C,"dose: 22.0 mg/kg/injection, schedule: Q04DX004 (ip), vehicle: carboxymethylcellulose (CMC)",360 % of control
same,T/C,"dose: 27.0 mg/kg/injection, schedule: Q01DX001 (ip), vehicle: Klucel (hydroxypropylcellulose) (HPC)",161 % of control
same,T/C,"dose: 30.0 mg/kg/injection, schedule: Q01DX001 (ip), vehicle: carboxymethylcellulose (CMC)",346 % of control
same,T/C,"dose: 33.0 mg/kg/injection, schedule: Q04DX004 (ip), vehicle: carboxymethylcellulose (CMC)",709 % of control
same,T/C,"dose: 33.5 mg/kg/injection, schedule: Q01DX001 (ip), vehicle: Klucel (hydroxypropylcellulose) (HPC)",574 % of control
same,T/C,"dose: 37.5 mg/kg/injection, schedule: Q01DX001 (ip), vehicle: carboxymethylcellulose (CMC)",534 % of control and 560 % of control and 606 % of control
same,T/C,"dose: 40.0 mg/kg/injection, schedule: Q01DX001 (ip), vehicle: Klucel (hydroxypropylcellulose) (HPC)",222 % of control
same,T/C,"dose: 40.0 mg/kg/injection, schedule: Q01DX001 (ip), vehicle: carboxymethylcellulose (CMC)",368 % of control
same,T/C,"dose: 42.0 mg/kg/injection, schedule: Q01DX001 (ip), vehicle: Klucel (hydroxypropylcellulose) (HPC)",438 % of control
same,T/C,"dose: 43.0 mg/kg/injection, schedule: Q01DX001 (ip), vehicle: carboxymethylcellulose (CMC)",633 % of control and 707 % of control
same,T/C,"dose: 50.0 mg/kg/injection, schedule: Q01DX001 (ip), vehicle: Klucel (hydroxypropylcellulose) (HPC)",407 % of control
same,T/C,"dose: 56.0 mg/kg/injection, schedule: Q01DX001 (ip), vehicle: Klucel (hydroxypropylcellulose) (HPC)",464 % of control
same,T/C,"dose: 60.0 mg/kg/injection, schedule: Q01DX001 (ip), vehicle: Klucel (hydroxypropylcellulose) (HPC)",336 % of control
same,T/C,"dose: 62.5 mg/kg/injection, schedule: Q01DX001 (ip), vehicle: carboxymethylcellulose (CMC)",652 % of control and 662 % of control and 775 % of control
same,T/C,"dose: 70.0 mg/kg/injection, schedule: Q01DX001 (ip), vehicle: Klucel (hydroxypropylcellulose) (HPC)",519 % of control
same,T/C,"dose: 75.0 mg/kg/injection, schedule: Q01DX001 (ip), vehicle: carboxymethylcellulose (CMC)",826 % of control
same,T/C,"dose: 86.0 mg/kg/injection, schedule: Q01DX001 (ip), vehicle: carboxymethylcellulose (CMC)",242 % of control and 297 % of control
same,T/C,"dose: 90.0 mg/kg/injection, schedule: Q01DX001 (ip), vehicle: Klucel (hydroxypropylcellulose) (HPC)",522 % of control
